Reference: patent US4315022A, “Terminal amino prostaglandin analogues” (Beecham Group Limited, priority 1979, dated 1982)

Assays:
[1] = tested on: 5-hydroxytryptamine induced bronchoconstriction; assay: Inhibition of 5-hydroxytryptamine induced bronchoconstriction in anaesthetised, artificially respired guinea pig (Konzett-Rossler preparation); format: in vivo; details: Cavia porcellus, intravenous
Protocol: 1. The compounds were examined for their ability to inhibit 5-hydroxytryptamine induced bronchoconstriction in the anaesthetised, artificially respired guinea pig (Konzett-Rossler preparation). The compounds were administered intravenously.

[2] = tested on: bronchoconstriction induced by an histamine aerosol; assay: Protection of conscious guinea pigs against bronchoconstriction induced by histamine aerosol (Herxheimer test); format: in vivo, guinea pig; details: 10 μg/ml, 2 minutes after dosing
Protocol: 2. The compounds were examined for their ability to protect conscious guinea pigs against bronchoconstriction induced by an histamine aerosol (Herxheimer test). In these experiments the compounds were administered by aerosol.

Structure (SMILES) | ED50 [1] [mg/kg] | increase in pre-convulsive coughing time [2] [%]
CCCCCCC(C)(O)CCN1C(=O)N(C)C(=O)C1CCCCCCCN (stereo not drawn) [Compound 1, 1-(3'-hydroxy-3'-methyl-n-nonyl)-3-methyl-5-(7"-amino-n-heptyl)-hydantoin] | 0.0023 | –
CCCCCCC(C)(O)CCN1C(=O)N(C)C(=O)C1CCCCCCC(N)=NO (stereo not drawn) [Compound 2, 1-(3'-hydroxy-3'-methyl-n-nonyl)-3-methyl-5-(6"-amidoxyl-n-hexyl)-hydantoin] | 0.032 | 47.5
CCCCCCC(C)(O)CCN1C(=O)N(C)C(=O)C1CCCCCCC(N)=O (stereo not drawn) [Compound 3, 1-(3'-hydroxy-3'-methyl-n-nonyl)-3-methyl-5-(6"-amidoyl-n-hexyl) hydantoin] | 0.108 | 107
CCCCCCC(C)(O)CCN1C(=O)N(C)C(=O)C1CCCCCCCNCCC(=O)OC (stereo not drawn) [Compound 5, 1-(3'-hydroxy-3'-methyl-n-nonyl)-3-methyl-5-(7"-(2'''-methoxycarbonylethyl)amino-n-heptyl) hydantoin] | 0.095 | –
CCCCCCC(C)(O)CCN1C(=O)N(C)C(=O)C1CCCCCCCN(CCC(=O)OC)CCC(=O)OC (stereo not drawn) [Compound 6] | 0.079 | –
CCCCCCC(C)(O)CCN1C(=O)N(C)C(=O)C1CCCCCCCNCC(=O)OC (stereo not drawn) [Compound 9, 1-(3'-hydroxy-3'-methyl-n-nonyl)-3-methyl-5-5-[7'-(N-methoxycarbonylmethyl)amino-n-heptyl]-hydantoin] | 0.066 | –
CCCCCCC(C)(O)CCN1C(=O)N(C)C(=O)C1CCCCCCCN(CC(=O)OC)CC(=O)OC (stereo not drawn) [Compound 10, 1-(3'-hydroxy-3'-methyl-n-nonyl)-3-methyl-5-{7'-[N,N-bis(methoxycarbonylmethyl)amino]-n-heptyl}hydantoin] | 0.0805 | –
